{
  "source": "patent US20250312258A1",
  "about": "“2,3-PYRROLIDINEDIONE CONJUGATES AND METHODS OF USING THEREOF” (North Carolina State University, priority 2022, published 2025)",
  "assay_type_in_all_cases": "cell-based",
  "key": {"MSSA": {"system": "MSSA", "test": "MIC against MSSA strain panel", "conditions": "Staphylococcus aureus, the 4th table, read-out: MIC"}, "ATCC 29212 E. faecalis": {"system": "ATCC 29212 E. faecalis", "test": "MIC against ATCC 29212 E. faecalis", "conditions": "Enterococcus faecalis, ATCC29212, ATCC 29212 E. faecalis, read-out: MIC"}, "S. pneumoniae": {"system": "S. pneumoniae", "test": "MIC against S. pneumoniae strain panel", "conditions": "Streptococcus pneumoniae, read-out: MIC"}, "Group A Strep": {"system": "Group A Strep", "test": "MIC against Group A Strep strain panel", "conditions": "read-out: MIC"}, "Group B Strep": {"system": "Group B Strep", "test": "MIC against Group B Strep strain panel", "conditions": "read-out: MIC"}, "E. coli": {"system": "E. coli", "test": "MIC against E. coli strains", "conditions": "the 4th table"}},
  "note": "Like-named read-outs stand apart in the source and are kept apart here.",
  "data": [
    {"smiles": "CCC1C(c2ccc(C(F)(F)F)cc2)=C(O)C(=O)N1CCCNCCCCNC", "note": "(centres unmarked) [Compound 8]", "values": [
      {"measurement": "MIC", "setting": "MSSA; VGP16-100 MSSA", "result": 1, "unit": "µg/mL"},
      {"measurement": "MIC", "setting": "MSSA; VGP16-101 MSSA", "result": 1, "unit": "µg/mL"},
      {"measurement": "MIC", "setting": "MSSA; VGP16-116 MSSA", "result": 1, "unit": "µg/mL"},
      {"measurement": "MIC", "setting": "MSSA; VGP16-117 MSSA", "result": 1, "unit": "µg/mL"},
      {"measurement": "MIC", "setting": "ATCC 29212 E. faecalis; the 4th table", "result": 1, "unit": "µg/mL"},
      {"measurement": "MIC", "setting": "ATCC 29212 E. faecalis; the 6th table", "result": 4, "unit": "µg/mL"},
      {"measurement": "MIC", "setting": "S. pneumoniae; ATCC49619, ATCC 49619 S. pneumoniae, CA-MHB w/5% LHB, the 4th table", "result": 0.25, "unit": "µg/mL"},
      {"measurement": "MIC", "setting": "S. pneumoniae; ATCC49619, ATCC 49619 S. pneumoniae, the 7th table", "result": 0.25, "unit": "µg/mL"},
      {"measurement": "MIC", "setting": "S. pneumoniae; CO314937 S. pneumoniae, CA-MHB w/5% LHB, the 4th table", "result": 0.25, "unit": "µg/mL"},
      {"measurement": "MIC", "setting": "S. pneumoniae; CT3-5008 S. pneumoniae, the 7th table", "result": 0.25, "unit": "µg/mL"},
      {"measurement": "MIC", "setting": "S. pneumoniae; CT3-5803 S. pneumoniae, the 7th table", "result": 0.25, "unit": "µg/mL"},
      {"measurement": "MIC", "setting": "S. pneumoniae; CT3-8501 S. pneumoniae, the 7th table", "result": 0.25, "unit": "µg/mL"},
      {"measurement": "MIC", "setting": "S. pneumoniae; CT4-3048 S. pneumoniae, the 7th table", "result": 0.25, "unit": "µg/mL"},
      {"measurement": "MIC", "setting": "S. pneumoniae; CT4-9046 S. pneumoniae, the 7th table", "result": "≤ 0.125", "unit": "µg/mL"},
      {"measurement": "MIC", "setting": "S. pneumoniae; CT4-9693 S. pneumoniae, the 7th table", "result": 0.25, "unit": "µg/mL"},
      {"measurement": "MIC", "setting": "S. pneumoniae; CT5-6541 S. pneumoniae, the 7th table", "result": 0.25, "unit": "µg/mL"},
      {"measurement": "MIC", "setting": "S. pneumoniae; CT5-8032 S. pneumoniae, the 7th table", "result": 0.25, "unit": "µg/mL"},
      {"measurement": "MIC", "setting": "S. pneumoniae; CT5-9124 S. pneumoniae, the 7th table", "result": 0.25, "unit": "µg/mL"},
      {"measurement": "MIC", "setting": "S. pneumoniae; CT6-0670 S. pneumoniae, the 7th table", "result": 0.25, "unit": "µg/mL"},
      {"measurement": "MIC", "setting": "S. pneumoniae; CT6-7691 S. pneumoniae, the 7th table", "result": 0.25, "unit": "µg/mL"},
      {"measurement": "MIC", "setting": "S. pneumoniae; CT0200-2241 S. pneumoniae, the 7th table", "result": 0.25, "unit": "µg/mL"},
      {"measurement": "MIC", "setting": "S. pneumoniae; CT0200-2730 S. pneumoniae, the 7th table", "result": 0.5, "unit": "µg/mL"},
      {"measurement": "MIC", "setting": "S. pneumoniae; MD77773 S. pneumoniae, CA-MHB w/5% LHB, the 4th table", "result": 0.25, "unit": "µg/mL"},
      {"measurement": "MIC", "setting": "Group A Strep; 2007-11 Group A Strep, the 8th table", "result": 0.25, "unit": "µg/mL"},
      {"measurement": "MIC", "setting": "Group A Strep; 2007-28 Group A Strep, the 8th table", "result": "< 0.125", "unit": "µg/mL"},
      {"measurement": "MIC", "setting": "Group A Strep; 2007-49 Group A Strep, the 8th table", "result": "≤ 0.125", "unit": "µg/mL"},
      {"measurement": "MIC", "setting": "Group A Strep; 2007-73 Group A Strep, the 8th table", "result": "≤ 0.125", "unit": "µg/mL"},
      {"measurement": "MIC", "setting": "Group A Strep; 2007-107 Group A Strep, the 8th table", "result": 0.25, "unit": "µg/mL"},
      {"measurement": "MIC", "setting": "Group A Strep; 2007-1101 Group A Strep, the 8th table", "result": "≤ 0.125", "unit": "µg/mL"},
      {"measurement": "MIC", "setting": "Group A Strep; 2008-06 Group A Strep, the 8th table", "result": "≤ 0.125", "unit": "µg/mL"},
      {"measurement": "MIC", "setting": "Group A Strep; 2008-45 Group A Strep, the 8th table", "result": "≤ 0.125", "unit": "µg/mL"},
      {"measurement": "MIC", "setting": "Group A Strep; 2008-818 Group A Strep, CA-MHB w/5% LHB, the 4th table", "result": "≤ 0.125", "unit": "µg/mL"},
      {"measurement": "MIC", "setting": "Group A Strep; 2008-1565 Group A Strep, the 8th table", "result": 0.25, "unit": "µg/mL"},
      {"measurement": "MIC", "setting": "Group A Strep; 2008-1692 Group A Strep, the 8th table", "result": 0.25, "unit": "µg/mL"},
      {"measurement": "MIC", "setting": "Group A Strep; 2008-1732 Group A Strep, CA-MHB w/5% LHB, the 4th table", "result": "≤ 0.125", "unit": "µg/mL"},
      {"measurement": "MIC", "setting": "Group A Strep; 2009-8 Group A Strep, the 8th table", "result": 0.25, "unit": "µg/mL"},
      {"measurement": "MIC", "setting": "Group A Strep; 2009-37 Group A Strep, CA-MHB w/5% LHB, the 4th table", "result": "≤ 0.125", "unit": "µg/mL"},
      {"measurement": "MIC", "setting": "Group A Strep; 2009-106 Group A Strep, the 8th table", "result": 0.25, "unit": "µg/mL"},
      {"measurement": "MIC", "setting": "Group A Strep; 2009-109 Group A Strep, the 8th table", "result": "≤ 0.125", "unit": "µg/mL"},
      {"measurement": "MIC", "setting": "Group A Strep; 2009-114 Group A Strep, the 8th table", "result": 0.25, "unit": "µg/mL"},
      {"measurement": "MIC", "setting": "Group A Strep; 2009-136 Group A Strep, the 8th table", "result": "≤ 0.125", "unit": "µg/mL"},
      {"measurement": "MIC", "setting": "Group B Strep; 2008-57 Group B Strep, the 9th table", "result": 0.25, "unit": "µg/mL"},
      {"measurement": "MIC", "setting": "Group B Strep; 2008-70 Group B Strep, the 9th table", "result": "≤ 0.125", "unit": "µg/mL"},
      {"measurement": "MIC", "setting": "Group B Strep; 2008-87 Group B Strep, CA-MHB w/5% LHB, the 4th table", "result": 0.25, "unit": "µg/mL"},
      {"measurement": "MIC", "setting": "Group B Strep; 2008-115 Group B Strep, the 9th table", "result": 0.25, "unit": "µg/mL"},
      {"measurement": "MIC", "setting": "Group B Strep; 2009-20 Group B Strep, the 9th table", "result": 0.25, "unit": "µg/mL"},
      {"measurement": "MIC", "setting": "Group B Strep; 2009-40 Group B Strep, the 9th table", "result": 0.25, "unit": "µg/mL"},
      {"measurement": "MIC", "setting": "Group B Strep; 2009-43 Group B Strep, the 9th table", "result": "≤ 0.125", "unit": "µg/mL"},
      {"measurement": "MIC", "setting": "Group B Strep; 2009-51 Group B Strep, the 9th table", "result": "≤ 0.125", "unit": "µg/mL"},
      {"measurement": "MIC", "setting": "Group B Strep; 2009-57 Group B Strep, the 9th table", "result": 0.25, "unit": "µg/mL"},
      {"measurement": "MIC", "setting": "Group B Strep; 2009-59 Group B Strep, the 9th table", "result": 0.25, "unit": "µg/mL"},
      {"measurement": "MIC", "setting": "Group B Strep; 2009-60 Group B Strep, the 9th table", "result": 0.25, "unit": "µg/mL"},
      {"measurement": "MIC", "setting": "Group B Strep; 2009-61 Group B Strep, CA-MHB w/5% LHB, the 4th table", "result": 0.25, "unit": "µg/mL"},
      {"measurement": "MIC", "setting": "Group B Strep; 2009-62 Group B Strep, CA-MHB w/5% LHB, the 4th table", "result": "≤ 0.125", "unit": "µg/mL"},
      {"measurement": "MIC", "setting": "Group B Strep; J4182 Group B Strep, the 9th table", "result": "≤ 0.125", "unit": "µg/mL"},
      {"measurement": "MIC", "setting": "Group B Strep; J4183 Group B Strep, the 9th table", "result": 0.25, "unit": "µg/mL"},
      {"measurement": "MIC", "setting": "Group B Strep; J4185 Group B Strep, the 9th table", "result": 0.25, "unit": "µg/mL"},
      {"measurement": "MIC", "setting": "Group B Strep; J4186 Group B Strep, the 9th table", "result": 0.25, "unit": "µg/mL"},
      {"measurement": "MIC", "setting": "Group B Strep; J4222 Group B Strep, the 9th table", "result": 0.25, "unit": "µg/mL"},
      {"measurement": "MIC", "setting": "E. coli; AR-137 E. coli", "result": ">64", "unit": "µg/mL"},
      {"measurement": "MIC", "setting": "E. coli; Escherichia coli, ATCC25922, ATCC 25922 E. coli, read-out: MIC", "result": "> 64", "unit": "µg/mL"},
      {"measurement": "MIC", "setting": "E. coli; Escherichia coli, AR-451 E. coli, read-out: MIC", "result": "> 64", "unit": "µg/mL"}
    ]}
  ]
}
